The text below walks through data of patent publication US20240109934A1, “ANTIBIOTICS WITH IMPROVED DRUG RESISTANCE PROFILE” (priority 2021, published 2024).

Where two headings read alike, the source gives them in different places.

Experiment [1] relates to human foreskin fibroblasts (HFF-1). The experiment is described as follows: Cell viability, Alamar Blue assay. As to conditions: 72 h incubation, error SEM n = 2, listed as FA(1), read-out: IC50, Mammalian Toxicity in HFF-1. The experiment is classed as cell-based. As to the method: Cell Culture. HFF-1 cells were obtained from ATCC. HFF-1 cells were grown in DMEM with 15% fetal bovine serum (Gemini Benchmark, Cat #100-106), 100 U/mL penicillin, and 100 μg/mL streptomycin. All cells were cultured at 37° C. in a 5% CO2 environment. Media was prepared by the University of Illinois School of Chemical Sciences Cell Media Facility.
Cell Viability. Cells were harvested, seeded in a 96 well-plate and allowed to adhere. Cells were treated with investigational compounds in DMSO (1% final concentration). Cells were incubated for 72 h before viability was assessed by the Alamar Blue Assay. Raptinal ([…]) was used as a dead control.
In general terms: The colour change of resazurin is a common sign of viable cells or microbes.

In experiment [2] the test system is clinical isolates of S. aureus. As to conditions: cited from earlier work.
Experiment [3] relates to S. aureus 29213. Kind of experiment: MIC shift with 50% human serum. The experiment is classed as cell-based. As to conditions: S. aureus 29213, 50% human serum vs none. How it is done: Antimicrobial Susceptibility Tests. Susceptibility testing was performed in biological triplicate, using the micro-dilution broth method as outlined by the Clinical and Laboratory Standards Institute. […] Human serum (Ultrafiltrate, unspecified gender, 30K Dalton membrane filtered) was purchased from BioIVT (Hicksville, NY).

In general, IC50 refers to the concentration needed to halve the response being measured. As for `CC(=O)O[C@H]1C[C@@]2(C)[C@@H](C[C@@H](O)[C@H]3[C@@]4(C)CC[C@@H](O)[C@@H](C)[C@@H]4CC[C@@]32C)/C1=C(\CCC=C(C)C)C(=O)O` [FA, Fusidic acid], the IC50 in experiment [1] is 146 ± 11 µM. In experiment [2] (United States, analysis conducted in 2011), the “S. aureus strains susceptible” value is reported as 99.7%. Further, the MIC range in experiment [2] (staphylococcal clinical isolates that carry the fusC gene) is 2 to 64 µg/mL; in experiment [2] (strains that possess the fusB gene), 4 to 1024 µg/mL.

Take `CC(=O)O[C@H]1C[C@@]2(C)[C@@H](C[C@@H](O)[C@H]3[C@@]4(C)CC[C@@H](O)[C@@H](C)[C@@H]4CC[C@@]32C)/C1=C(\CCC=C1CCCC1)C(=O)O` [FA-CP, (Z)-2-((3R,4S,5S,8S,9S,10S,11R,13R,14S,16S)-16-acetoxy-3,11-dihydroxy-4,8,10,14-tetramethylhexadecahydro-17H-cyclopenta[a]phenanthren-17-ylidene)-5-cyclopentylidenepentanoic acid]: the “Fold Change Increase in MIC with 50% Human Serum” value in experiment [3] was 8X.
